We go through 2 molecules from paper PMC4851326, “Pharmacologic Comparison of Clinical Neutral Endopeptidase Inhibitors in a Rat Model of Acute Secretory Diarrhea” (The Journal of Pharmacology and Experimental Therapeutics, 2016).

Holding throughout (settings): recombinant purified human enzyme; for prodrugs the active form was tested
One experiment concerns the target T1, NEP (Homo sapiens, UniProt P08473).
T1 construct: purchased R&D Systems (Minneapolis, MN)
Description: Purified peptidase assay, NEP. Format: biochemical. How it is done:
(§1) Purified recombinant human enzymes were purchased from R&D Systems (Minneapolis, MN). […] Each substrate was diluted to 100 μM in the assay buffer recommended for each enzyme by the supplier. […] To these, 5 μl of diluted enzyme was added, followed by 10 μl of the quenched peptide substrate. The plates were incubated at 37°C until at least 10% substrate turnover or 5 μM product had formed. Fluorescence was measured using a Tecan Safire II (Excitation 320 nm/Emission 420 nm). Each plate included a standard curve of reaction product and positive (no enzyme) and negative (dimethyl sulfoxide vehicle) controls. Dose-response data were plotted and inhibition values (IC50) determined by linear regression analysis using GraphPad Prism (GraphPad Software, La Jolla, CA).

For a further experiment, the target named is T2, ACE (Homo sapiens, UniProt P12821).
T2 construct: purchased R&D Systems (Minneapolis, MN)
Kind of experiment: Purified peptidase assay, ACE. Format: biochemical. The method, then: as §1

The target in the next experiment is T3, ECE-1 (Homo sapiens, UniProt P42892).
T3 construct: purchased R&D Systems (Minneapolis, MN)
T3 sequence (P42892 1-770): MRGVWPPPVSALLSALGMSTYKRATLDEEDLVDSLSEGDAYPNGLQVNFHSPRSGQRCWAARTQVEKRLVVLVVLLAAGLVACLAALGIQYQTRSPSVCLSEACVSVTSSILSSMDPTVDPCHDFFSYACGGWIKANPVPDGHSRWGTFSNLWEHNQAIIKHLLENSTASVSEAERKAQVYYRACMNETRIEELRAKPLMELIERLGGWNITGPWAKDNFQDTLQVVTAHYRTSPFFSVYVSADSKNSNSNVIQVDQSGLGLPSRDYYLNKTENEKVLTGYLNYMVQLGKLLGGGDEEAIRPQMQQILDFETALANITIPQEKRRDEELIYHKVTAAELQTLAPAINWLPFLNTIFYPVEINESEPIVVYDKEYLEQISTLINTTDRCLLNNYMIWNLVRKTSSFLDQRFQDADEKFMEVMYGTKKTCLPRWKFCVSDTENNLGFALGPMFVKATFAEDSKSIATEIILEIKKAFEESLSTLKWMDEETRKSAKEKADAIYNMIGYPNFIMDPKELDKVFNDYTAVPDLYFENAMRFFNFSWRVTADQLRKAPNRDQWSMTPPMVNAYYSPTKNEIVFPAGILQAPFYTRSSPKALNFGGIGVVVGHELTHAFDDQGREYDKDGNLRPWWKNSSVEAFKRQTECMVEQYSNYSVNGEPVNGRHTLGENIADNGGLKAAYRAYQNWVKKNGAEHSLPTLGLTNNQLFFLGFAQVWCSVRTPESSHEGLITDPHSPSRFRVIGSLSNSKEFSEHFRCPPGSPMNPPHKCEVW
Description: biochemical. The method, then:
as §1

The next experiment addresses T4, ECE-2 (Homo sapiens, UniProt P0DPD6).
T4 construct: purchased R&D Systems (Minneapolis, MN)
T4 sequence (P0DPD6 1-811): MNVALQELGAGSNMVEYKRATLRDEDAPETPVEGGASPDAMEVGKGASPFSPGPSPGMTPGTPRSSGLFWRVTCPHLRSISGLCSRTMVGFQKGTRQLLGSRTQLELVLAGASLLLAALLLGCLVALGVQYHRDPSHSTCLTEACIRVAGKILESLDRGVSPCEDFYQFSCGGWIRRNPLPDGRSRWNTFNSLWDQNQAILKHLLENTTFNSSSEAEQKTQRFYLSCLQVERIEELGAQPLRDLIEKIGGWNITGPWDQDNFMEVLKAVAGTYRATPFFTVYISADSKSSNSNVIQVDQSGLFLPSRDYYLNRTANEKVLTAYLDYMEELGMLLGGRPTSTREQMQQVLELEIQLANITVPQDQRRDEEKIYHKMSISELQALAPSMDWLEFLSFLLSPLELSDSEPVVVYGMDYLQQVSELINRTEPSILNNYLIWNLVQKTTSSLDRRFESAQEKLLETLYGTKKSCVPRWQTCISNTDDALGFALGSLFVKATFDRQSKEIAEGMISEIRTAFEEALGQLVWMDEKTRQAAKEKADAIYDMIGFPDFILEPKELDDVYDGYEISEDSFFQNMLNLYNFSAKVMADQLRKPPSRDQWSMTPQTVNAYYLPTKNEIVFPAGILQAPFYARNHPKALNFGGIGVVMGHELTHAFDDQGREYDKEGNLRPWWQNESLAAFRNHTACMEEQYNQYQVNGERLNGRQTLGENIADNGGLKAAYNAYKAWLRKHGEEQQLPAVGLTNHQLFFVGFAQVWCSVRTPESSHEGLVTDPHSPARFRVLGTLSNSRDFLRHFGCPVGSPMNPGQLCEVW
Description: Purified peptidase assay, ECE-2. Format: biochemical. The method, then: as §1

The next experiment deals with T5, IDE (Homo sapiens, UniProt P14735).
T5 construct: purchased R&D Systems (Minneapolis, MN)
T5 sequence (P14735 1-1019): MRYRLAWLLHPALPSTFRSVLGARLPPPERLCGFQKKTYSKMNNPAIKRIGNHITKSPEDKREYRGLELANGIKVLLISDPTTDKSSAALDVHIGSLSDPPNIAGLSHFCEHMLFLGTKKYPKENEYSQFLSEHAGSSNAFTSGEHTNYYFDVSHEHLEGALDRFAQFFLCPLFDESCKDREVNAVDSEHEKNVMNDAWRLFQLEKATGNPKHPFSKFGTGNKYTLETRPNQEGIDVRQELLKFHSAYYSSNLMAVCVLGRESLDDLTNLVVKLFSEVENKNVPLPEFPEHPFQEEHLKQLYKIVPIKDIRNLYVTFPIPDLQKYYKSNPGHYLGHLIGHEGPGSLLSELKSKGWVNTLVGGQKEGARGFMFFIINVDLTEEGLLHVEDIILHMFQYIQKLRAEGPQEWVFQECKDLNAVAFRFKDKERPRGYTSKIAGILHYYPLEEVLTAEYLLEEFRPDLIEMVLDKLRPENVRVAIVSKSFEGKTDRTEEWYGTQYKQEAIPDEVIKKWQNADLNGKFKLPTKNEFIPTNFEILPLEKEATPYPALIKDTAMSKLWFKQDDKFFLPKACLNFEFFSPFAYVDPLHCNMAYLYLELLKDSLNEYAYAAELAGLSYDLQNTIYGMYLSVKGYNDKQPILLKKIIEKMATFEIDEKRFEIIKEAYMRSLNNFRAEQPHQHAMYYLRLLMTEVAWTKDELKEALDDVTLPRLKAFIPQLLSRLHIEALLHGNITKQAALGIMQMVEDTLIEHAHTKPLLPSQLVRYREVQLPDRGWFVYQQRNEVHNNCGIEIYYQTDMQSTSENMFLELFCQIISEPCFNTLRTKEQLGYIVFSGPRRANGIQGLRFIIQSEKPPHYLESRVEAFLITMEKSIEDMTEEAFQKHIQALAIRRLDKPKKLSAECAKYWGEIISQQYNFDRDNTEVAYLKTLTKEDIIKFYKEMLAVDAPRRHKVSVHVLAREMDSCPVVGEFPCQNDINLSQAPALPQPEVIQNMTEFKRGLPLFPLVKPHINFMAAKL
Kind of experiment: Purified peptidase assay, IDE. The format is biochemical. The method, then:
as §1

For another experiment, the target named is T6, aminopeptidase N (Homo sapiens, UniProt P15144).
T6 construct: purchased R&D Systems (Minneapolis, MN)
Description: Purified peptidase assay, APN. Format: biochemical. How it is done: as §1

The target in experiment [1] is T7, puromycin-sensitive aminopeptidase (Homo sapiens, UniProt P55786).
T7 construct: purchased R&D Systems (Minneapolis, MN)
Kind of experiment: Purified peptidase assay, PSA. Format: biochemical. How it is done:
as §1

T2 sequence (P12821 30-1306): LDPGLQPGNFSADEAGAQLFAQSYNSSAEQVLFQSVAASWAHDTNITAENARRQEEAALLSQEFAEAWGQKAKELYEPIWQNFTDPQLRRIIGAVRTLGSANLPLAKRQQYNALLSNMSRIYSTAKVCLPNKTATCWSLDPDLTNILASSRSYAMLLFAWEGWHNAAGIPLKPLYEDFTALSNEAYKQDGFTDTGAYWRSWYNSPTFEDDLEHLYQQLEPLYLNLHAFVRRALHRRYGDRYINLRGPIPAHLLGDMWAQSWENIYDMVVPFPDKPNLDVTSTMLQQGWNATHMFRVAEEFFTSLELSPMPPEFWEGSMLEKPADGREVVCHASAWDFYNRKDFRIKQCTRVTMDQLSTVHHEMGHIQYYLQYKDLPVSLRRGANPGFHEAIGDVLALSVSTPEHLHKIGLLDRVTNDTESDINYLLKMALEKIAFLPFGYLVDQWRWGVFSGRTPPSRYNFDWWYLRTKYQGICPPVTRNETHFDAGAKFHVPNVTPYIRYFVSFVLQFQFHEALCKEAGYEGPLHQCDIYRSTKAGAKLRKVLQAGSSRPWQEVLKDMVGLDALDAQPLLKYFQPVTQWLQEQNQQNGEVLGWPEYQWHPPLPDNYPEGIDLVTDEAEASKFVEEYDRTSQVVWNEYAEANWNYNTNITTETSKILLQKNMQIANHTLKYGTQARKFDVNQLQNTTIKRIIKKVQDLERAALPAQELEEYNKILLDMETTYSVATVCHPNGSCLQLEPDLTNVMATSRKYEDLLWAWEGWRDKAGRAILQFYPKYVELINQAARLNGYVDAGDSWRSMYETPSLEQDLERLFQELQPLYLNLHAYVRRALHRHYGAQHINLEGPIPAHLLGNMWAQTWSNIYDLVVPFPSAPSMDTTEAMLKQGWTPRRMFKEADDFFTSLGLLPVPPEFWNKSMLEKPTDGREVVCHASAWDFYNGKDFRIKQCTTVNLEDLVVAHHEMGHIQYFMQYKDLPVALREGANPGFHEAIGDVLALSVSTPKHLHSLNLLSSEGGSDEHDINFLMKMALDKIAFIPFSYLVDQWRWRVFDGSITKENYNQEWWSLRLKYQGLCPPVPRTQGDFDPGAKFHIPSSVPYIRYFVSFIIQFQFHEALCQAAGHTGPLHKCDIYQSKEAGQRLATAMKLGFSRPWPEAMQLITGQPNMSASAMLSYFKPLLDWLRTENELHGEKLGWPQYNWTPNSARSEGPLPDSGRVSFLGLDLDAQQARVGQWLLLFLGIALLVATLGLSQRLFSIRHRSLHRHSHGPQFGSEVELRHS
T7 sequence (P55786 whole entry): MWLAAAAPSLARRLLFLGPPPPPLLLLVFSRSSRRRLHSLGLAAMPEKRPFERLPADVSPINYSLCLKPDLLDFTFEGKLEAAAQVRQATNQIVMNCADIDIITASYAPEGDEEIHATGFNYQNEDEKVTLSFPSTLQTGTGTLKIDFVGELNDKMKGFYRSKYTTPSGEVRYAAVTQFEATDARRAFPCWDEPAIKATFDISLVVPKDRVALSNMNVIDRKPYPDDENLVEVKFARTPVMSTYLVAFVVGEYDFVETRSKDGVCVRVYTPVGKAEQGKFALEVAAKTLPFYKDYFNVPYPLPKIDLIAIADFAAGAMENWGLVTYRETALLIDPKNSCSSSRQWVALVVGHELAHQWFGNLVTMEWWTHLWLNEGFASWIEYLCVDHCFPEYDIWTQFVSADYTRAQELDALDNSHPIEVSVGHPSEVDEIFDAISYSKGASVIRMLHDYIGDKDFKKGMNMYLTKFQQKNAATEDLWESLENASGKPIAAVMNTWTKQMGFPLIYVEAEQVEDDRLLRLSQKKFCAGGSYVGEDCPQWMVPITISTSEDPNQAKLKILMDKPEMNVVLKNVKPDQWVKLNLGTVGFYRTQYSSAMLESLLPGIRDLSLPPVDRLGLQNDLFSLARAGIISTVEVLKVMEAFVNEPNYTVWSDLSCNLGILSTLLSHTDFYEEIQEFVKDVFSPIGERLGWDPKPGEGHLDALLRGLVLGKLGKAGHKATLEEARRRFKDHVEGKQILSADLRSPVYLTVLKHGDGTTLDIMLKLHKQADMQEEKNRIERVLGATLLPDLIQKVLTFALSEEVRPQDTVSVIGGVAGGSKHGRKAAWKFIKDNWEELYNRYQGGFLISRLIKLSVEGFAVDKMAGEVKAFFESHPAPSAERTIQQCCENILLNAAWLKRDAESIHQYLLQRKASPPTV
T1 sequence (P08473 whole entry): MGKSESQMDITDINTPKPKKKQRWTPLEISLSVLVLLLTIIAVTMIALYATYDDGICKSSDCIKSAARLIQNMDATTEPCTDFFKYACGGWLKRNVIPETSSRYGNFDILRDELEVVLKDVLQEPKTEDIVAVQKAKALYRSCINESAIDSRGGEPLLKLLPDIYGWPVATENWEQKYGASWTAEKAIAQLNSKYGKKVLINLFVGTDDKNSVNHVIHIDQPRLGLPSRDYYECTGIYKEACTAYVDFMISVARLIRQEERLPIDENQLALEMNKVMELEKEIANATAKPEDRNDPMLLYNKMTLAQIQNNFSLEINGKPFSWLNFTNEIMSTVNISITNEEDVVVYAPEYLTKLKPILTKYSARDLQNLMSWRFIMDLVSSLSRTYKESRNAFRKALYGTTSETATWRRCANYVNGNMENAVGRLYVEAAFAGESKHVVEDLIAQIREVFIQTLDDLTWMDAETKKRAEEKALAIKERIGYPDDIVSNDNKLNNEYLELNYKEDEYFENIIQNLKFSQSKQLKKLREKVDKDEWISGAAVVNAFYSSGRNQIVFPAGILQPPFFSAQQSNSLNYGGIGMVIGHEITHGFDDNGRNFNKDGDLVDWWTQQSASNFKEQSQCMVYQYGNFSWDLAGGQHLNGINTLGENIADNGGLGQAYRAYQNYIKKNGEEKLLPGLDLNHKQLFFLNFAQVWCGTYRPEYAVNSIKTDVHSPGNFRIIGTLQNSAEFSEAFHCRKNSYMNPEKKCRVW
T6 sequence (P15144 whole entry): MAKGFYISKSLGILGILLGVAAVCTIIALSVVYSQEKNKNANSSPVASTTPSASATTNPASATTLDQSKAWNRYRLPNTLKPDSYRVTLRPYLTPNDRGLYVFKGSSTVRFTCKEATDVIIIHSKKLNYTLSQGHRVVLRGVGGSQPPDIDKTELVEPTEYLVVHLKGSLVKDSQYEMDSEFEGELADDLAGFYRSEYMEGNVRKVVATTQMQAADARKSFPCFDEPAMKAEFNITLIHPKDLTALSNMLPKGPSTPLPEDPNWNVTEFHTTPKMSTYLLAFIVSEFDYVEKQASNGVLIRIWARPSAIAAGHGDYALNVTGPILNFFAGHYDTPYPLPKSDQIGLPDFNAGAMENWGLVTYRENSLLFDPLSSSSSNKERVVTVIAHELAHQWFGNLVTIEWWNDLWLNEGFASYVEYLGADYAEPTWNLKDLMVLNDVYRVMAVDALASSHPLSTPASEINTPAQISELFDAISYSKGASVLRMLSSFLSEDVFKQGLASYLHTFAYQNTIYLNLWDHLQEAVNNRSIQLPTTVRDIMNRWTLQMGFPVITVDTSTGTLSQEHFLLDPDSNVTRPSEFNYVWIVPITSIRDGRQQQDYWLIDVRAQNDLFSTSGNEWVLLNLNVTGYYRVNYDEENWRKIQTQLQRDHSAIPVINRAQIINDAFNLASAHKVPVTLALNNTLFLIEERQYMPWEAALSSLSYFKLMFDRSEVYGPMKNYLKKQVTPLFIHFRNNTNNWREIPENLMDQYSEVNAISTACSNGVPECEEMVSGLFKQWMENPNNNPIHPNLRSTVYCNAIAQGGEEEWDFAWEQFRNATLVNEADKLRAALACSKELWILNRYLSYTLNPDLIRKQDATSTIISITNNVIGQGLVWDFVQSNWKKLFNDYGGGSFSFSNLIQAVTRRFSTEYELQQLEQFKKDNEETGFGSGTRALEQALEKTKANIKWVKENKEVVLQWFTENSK

By IC50 is commonly meant the concentration that gives 50% inhibition. On to `CC1(C)CCC[C@H](NC(=O)[C@@H](S)Cc2ccccc2)C(=O)N1CC(=O)O` [Gemopatrilat], for which the half-maximal inhibitory concentration (IC50) on NEP was 0.06 µM; at ACE, 0.23 µM; at ECE-1 it was 12 µM; on ECE-2, 77 µM; on IDE, above 100 µM; at aminopeptidase N it was 18 µM. Moreover, in experiment [1], the IC50 amounted to 18 µM.
Regarding `O=C(N[C@H]1CCS[C@H]2CCC[C@@H](C(=O)O)N2C1=O)[C@@H](S)Cc1ccccc1` [Omapatrilat], the concentration for half-maximal inhibition (IC50) is 0.04 µM on NEP; 0.19 µM on ACE; 21 µM at ECE-1; 86 µM at ECE-2; above 100 µM on IDE; 28 µM at aminopeptidase N. Moreover, the IC50 in experiment [1] is above 100 µM.
